# Assay results published in ChEMBL document CHEMBL5465560, “Selectivity Literature for EUbOPEN Chemogenomic Library” (2024).
# How the values were obtained:
# [1] = molecular target: T1, Dual specificity mitogen-activated protein kinase kinase 6 (Homo sapiens) (UniProt P52564); experiment: Selectivity interaction (Kinase panel (Z-LYTE Assay)) EUB0001632a MAP2K6; settings: at 10 µM
# T1 sequence (whole entry): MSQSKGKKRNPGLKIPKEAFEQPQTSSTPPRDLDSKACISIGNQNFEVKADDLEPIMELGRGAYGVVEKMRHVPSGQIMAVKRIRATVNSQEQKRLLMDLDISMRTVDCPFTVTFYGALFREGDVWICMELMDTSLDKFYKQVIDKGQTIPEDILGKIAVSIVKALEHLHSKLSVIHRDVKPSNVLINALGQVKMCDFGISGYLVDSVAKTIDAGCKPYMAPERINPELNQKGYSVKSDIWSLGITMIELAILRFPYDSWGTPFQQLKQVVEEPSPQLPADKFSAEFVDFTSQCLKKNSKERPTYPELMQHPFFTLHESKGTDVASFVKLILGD
# [2] = molecular target: Amine oxidase [flavin-containing] B (Homo sapiens, UniProt P27338); experiment: Selectivity interaction (Eurofins safety panel) EUB0001564a MAOB; settings: at 10 µM
# Amine oxidase [flavin-containing] B, sequence (P27338 whole entry): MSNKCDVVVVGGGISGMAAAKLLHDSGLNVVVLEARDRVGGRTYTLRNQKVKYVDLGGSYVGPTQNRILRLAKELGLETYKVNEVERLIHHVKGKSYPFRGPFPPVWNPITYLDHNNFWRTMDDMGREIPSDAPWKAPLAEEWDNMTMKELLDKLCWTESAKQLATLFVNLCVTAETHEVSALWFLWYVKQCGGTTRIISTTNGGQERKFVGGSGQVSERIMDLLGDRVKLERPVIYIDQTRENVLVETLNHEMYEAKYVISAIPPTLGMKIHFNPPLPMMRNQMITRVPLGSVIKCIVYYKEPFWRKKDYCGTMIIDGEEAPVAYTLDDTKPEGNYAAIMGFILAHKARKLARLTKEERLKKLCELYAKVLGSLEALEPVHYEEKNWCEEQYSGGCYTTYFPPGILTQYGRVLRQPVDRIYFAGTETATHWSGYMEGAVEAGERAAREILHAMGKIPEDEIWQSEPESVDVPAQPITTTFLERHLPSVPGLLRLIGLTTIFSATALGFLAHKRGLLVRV
# [3] = molecular target: T2, Dual specificity mitogen-activated protein kinase kinase 7 (Homo sapiens) (UniProt O14733); experiment: Selectivity interaction (KinomeScan (DiscoverX)) EUB0000607a MAP2K7; settings: at 10 µM
# T2 sequence (whole entry): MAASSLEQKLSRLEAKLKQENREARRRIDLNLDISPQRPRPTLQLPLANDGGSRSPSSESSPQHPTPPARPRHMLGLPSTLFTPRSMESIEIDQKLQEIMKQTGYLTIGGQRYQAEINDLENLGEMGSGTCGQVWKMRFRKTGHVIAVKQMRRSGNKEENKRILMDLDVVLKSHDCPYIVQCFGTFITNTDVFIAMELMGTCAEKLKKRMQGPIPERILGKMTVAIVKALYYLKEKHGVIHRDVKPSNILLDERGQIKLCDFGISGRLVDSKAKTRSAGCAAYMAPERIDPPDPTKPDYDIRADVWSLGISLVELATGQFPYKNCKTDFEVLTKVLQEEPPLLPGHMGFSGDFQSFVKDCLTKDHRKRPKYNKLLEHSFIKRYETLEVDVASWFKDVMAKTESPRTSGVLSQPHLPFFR
# [4] = molecular target: Serine/threonine-protein kinase 16 (Homo sapiens, UniProt O75716); experiment: Selectivity interaction (ActivX KiNativ screen (kinase selectivity in THP-1 cell lysates)) EUB0000639a STK16; assay type: subcellular; settings: lysate, at 5 µM
# Serine/threonine-protein kinase 16, sequence (O75716 whole entry): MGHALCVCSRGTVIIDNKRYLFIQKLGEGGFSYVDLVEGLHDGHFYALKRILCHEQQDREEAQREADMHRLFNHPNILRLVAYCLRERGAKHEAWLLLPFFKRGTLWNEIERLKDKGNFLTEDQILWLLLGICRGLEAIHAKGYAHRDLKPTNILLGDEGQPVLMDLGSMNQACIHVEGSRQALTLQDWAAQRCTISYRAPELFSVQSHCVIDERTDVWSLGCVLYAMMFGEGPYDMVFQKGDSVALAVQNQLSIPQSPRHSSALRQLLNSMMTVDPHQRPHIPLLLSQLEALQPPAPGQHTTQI
# [5] = molecular target: Protein-tyrosine kinase 6 (Homo sapiens, UniProt Q13882); experiment: Selectivity interaction (KinomeScan (DiscoverX)) EUB0001049a PTK6; settings: at 1 µM
# Protein-tyrosine kinase 6, sequence (Q13882 whole entry, looked up): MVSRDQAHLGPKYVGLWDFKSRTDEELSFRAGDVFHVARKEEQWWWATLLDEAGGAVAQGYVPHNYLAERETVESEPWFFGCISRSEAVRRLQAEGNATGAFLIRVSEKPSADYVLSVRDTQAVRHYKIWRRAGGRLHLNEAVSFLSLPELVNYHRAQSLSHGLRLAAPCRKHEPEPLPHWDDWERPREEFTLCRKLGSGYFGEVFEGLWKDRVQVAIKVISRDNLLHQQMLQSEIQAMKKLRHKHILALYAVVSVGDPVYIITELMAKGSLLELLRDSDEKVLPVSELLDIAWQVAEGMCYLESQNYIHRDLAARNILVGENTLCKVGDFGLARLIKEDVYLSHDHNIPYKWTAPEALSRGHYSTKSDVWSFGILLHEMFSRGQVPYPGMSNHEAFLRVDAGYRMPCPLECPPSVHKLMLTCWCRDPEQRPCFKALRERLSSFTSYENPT
# [6] = molecular target: T3, Tyrosine-protein kinase receptor TYRO3 (Homo sapiens) (UniProt Q06418); experiment: Selectivity interaction (KinomeScan (DiscoverX)) EUB0001049a TYRO3; settings: at 1 µM
# T3 sequence (whole entry): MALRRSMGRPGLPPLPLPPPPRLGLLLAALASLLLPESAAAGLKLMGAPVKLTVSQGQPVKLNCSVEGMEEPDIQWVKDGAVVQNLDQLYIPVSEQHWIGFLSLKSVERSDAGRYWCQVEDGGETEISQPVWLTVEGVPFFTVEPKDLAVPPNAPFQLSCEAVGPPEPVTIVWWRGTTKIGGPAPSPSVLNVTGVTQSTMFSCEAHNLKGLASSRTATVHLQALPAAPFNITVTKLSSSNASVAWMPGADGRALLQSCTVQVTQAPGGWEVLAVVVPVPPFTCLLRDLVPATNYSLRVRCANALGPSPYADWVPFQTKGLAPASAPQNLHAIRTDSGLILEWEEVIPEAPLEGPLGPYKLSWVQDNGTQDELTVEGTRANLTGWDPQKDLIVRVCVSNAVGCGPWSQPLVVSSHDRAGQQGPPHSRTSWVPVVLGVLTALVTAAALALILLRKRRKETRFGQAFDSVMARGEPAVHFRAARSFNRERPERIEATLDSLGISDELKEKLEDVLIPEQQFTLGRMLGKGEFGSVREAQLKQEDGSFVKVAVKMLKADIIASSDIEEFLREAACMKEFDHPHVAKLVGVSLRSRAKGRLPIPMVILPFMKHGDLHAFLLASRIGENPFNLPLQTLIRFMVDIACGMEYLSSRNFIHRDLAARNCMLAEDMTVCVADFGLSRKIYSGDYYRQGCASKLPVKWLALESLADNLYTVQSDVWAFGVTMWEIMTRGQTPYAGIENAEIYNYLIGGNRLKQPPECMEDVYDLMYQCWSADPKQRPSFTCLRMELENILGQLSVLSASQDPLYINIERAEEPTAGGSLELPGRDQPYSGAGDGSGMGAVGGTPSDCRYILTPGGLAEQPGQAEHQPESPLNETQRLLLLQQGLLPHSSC
# [7] = molecular target: CDK9/cyclin T1 (Homo sapiens, UniProt P50750); experiment: Selectivity interaction (Radiometric kinase assay ) EUB0000090b CDK9; assay type: protein-complex assay
# CDK9/cyclin T1, sequence (O60563 whole entry): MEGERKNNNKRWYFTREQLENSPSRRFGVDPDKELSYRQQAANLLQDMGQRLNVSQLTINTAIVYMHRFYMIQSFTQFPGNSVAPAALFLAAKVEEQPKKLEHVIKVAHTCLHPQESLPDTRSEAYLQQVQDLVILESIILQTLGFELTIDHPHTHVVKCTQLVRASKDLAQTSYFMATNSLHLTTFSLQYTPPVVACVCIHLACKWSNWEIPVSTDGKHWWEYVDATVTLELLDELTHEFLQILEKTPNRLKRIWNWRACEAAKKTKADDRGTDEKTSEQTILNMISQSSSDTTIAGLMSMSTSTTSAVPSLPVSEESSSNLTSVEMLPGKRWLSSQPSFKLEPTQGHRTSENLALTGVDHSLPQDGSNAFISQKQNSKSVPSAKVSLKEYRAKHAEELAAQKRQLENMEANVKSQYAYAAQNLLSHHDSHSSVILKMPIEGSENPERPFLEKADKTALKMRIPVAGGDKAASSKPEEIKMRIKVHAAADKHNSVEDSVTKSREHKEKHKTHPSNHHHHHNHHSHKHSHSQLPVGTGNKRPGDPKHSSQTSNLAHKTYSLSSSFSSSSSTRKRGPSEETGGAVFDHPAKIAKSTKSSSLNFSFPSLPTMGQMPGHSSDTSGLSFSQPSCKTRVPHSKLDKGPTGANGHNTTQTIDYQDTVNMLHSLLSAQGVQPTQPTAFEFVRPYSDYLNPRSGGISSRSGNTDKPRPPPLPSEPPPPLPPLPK
# CDK9/cyclin T1, sequence (P50750 whole entry): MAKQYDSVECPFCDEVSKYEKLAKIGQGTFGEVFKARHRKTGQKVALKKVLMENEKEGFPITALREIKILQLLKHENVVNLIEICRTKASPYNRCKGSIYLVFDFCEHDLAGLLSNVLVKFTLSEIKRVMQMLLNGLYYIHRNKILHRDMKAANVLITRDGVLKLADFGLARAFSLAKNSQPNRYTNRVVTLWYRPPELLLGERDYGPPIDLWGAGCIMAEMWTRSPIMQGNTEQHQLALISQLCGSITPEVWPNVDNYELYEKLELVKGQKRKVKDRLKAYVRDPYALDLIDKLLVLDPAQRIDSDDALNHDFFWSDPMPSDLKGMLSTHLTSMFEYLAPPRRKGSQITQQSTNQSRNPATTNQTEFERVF
# [8] = molecular target: T4, Aurora kinase C (Homo sapiens) (UniProt Q9UQB9); experiment: Selectivity interaction (KinomeScan (DiscoverX)) EUB0001079a AURKC; settings: at 1 µM
# T4 sequence (whole entry): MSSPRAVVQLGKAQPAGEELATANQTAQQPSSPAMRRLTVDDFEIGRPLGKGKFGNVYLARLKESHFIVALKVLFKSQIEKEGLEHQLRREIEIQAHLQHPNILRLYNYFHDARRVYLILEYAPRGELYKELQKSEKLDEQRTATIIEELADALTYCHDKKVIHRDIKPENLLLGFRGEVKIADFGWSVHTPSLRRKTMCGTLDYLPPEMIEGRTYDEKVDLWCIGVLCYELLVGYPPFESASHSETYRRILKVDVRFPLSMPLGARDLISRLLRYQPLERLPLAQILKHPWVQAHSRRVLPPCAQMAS
# [9] = molecular target: Serine/threonine-protein kinase PRP4 homolog (Homo sapiens) (UniProt Q13523); experiment: Selectivity interaction (Kinase panel (KiNativ target engagement assay in Jurkat cells)) EUB0001635a PRPF4; assay type: cell-based; settings: Selectivity number of off-targets 0.0, Selectivity number of targets 233.0, Source Knowledge https://www.sciencedirect.com/science/article/pii/S2451945619300674?via%3Dihub, at 1 µM
# Serine/threonine-protein kinase PRP4 homolog (Homo sapiens), sequence (Q13523 whole entry): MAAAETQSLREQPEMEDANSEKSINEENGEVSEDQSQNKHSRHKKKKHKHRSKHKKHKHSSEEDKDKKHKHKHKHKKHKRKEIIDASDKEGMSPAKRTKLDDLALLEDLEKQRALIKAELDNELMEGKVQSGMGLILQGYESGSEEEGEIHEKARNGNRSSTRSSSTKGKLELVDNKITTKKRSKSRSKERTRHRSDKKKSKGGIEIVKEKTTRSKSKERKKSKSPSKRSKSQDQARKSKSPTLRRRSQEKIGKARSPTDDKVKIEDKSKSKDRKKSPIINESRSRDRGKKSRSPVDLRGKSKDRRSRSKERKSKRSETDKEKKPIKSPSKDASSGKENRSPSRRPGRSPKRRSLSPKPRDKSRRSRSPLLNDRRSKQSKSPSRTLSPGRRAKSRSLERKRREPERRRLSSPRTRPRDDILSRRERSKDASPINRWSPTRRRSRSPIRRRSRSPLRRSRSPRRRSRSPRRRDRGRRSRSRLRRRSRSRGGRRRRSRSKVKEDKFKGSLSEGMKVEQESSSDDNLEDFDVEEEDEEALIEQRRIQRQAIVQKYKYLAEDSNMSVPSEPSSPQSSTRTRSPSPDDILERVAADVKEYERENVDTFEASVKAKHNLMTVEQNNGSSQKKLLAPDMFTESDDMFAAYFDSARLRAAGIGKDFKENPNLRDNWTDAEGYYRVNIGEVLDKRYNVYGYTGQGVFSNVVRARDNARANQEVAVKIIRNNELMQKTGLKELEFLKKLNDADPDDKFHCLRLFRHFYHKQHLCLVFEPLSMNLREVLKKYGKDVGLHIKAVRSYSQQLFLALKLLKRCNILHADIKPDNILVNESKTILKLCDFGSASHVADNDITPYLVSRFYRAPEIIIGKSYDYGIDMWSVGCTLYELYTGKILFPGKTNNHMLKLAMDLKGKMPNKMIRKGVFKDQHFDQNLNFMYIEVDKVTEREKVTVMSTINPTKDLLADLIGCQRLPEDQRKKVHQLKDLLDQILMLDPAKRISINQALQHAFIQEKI
# [10] = molecular target: Bone morphogenetic protein receptor type-1B (Homo sapiens, UniProt O00238); experiment: Selectivity interaction (KinomeScan (DiscoverX)) EUB0000092b BMPR1B; settings: at 10 µM
# Bone morphogenetic protein receptor type-1B, sequence (O00238 whole entry): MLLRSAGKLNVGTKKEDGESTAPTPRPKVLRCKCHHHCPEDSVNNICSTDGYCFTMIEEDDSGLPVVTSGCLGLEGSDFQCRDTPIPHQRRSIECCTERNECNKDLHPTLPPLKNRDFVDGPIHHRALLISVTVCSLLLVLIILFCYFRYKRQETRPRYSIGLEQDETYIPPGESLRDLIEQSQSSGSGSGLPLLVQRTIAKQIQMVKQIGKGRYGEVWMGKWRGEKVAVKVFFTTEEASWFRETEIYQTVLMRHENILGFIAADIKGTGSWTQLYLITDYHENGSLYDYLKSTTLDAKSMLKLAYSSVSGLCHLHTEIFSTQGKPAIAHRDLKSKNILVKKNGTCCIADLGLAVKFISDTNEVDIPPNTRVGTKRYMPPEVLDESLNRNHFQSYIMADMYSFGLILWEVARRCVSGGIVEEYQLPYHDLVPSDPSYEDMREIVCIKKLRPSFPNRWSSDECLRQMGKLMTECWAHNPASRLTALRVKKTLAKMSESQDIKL
# [11] = molecular target: Cyclin-dependent kinase 9 (Homo sapiens, UniProt P50750); experiment: Selectivity interaction (KinomeScan (DiscoverX)) EUB0001619a CDK9; settings: at 1 µM
# Cyclin-dependent kinase 9, sequence (P50750 whole entry): as the sequence (P50750 whole entry) above
structure (smiles),measurement,setting,value
Cn1cc(-n2cnc3c(NCc4nc5cc(Cl)c(Cl)cc5[nH]4)nc(N4CCOCC4)nc32)cn1,% of control,[1],5.11%
CC[C@@H](Nc1c(C#N)c(-c2ccc(-c3cccc(C)c3F)cc2)nc2cnccc12)C(=O)O [BAY-091],% of inhibition,[2],81%
CNC(=O)Nc1ccc(-c2nc(N3CC4CCC(C3)O4)c3cnn(C4CCC5(CC4)OCCO5)c3n2)cc1,% of control,[3],100%
CC[C@@H]1[C@H](F)C(=O)N[C@@H]1COc1nccc2cc(C(N)=O)c(OC)cc12 [ZIMLOVISERTIB],% of inhibition,[4],81.9%
COc1cc(Nc2nc(C)cc(-c3cnn4nc(OC)ccc34)n2)cc(C(F)(F)F)c1,% of control,[5],100%
same,% of control,[6],76%
CN(C)C/C=C/C(=O)Nc1ccc(C(=O)N2CCCC(Nc3ncc(Cl)c(-c4c[nH]c5ccccc45)n3)C2)cc1 (stereo unspecified),IC50,[7],10.5 µM
Nc1cnc(N2CCc3cc(S(=O)(=O)Nc4c(F)cc(Cl)cc4F)cc(N4CCCC4=O)c32)nc1 [TP-020n],% of control,[8],100%
C=CC(=O)Nc1ccc(C(=O)Nc2[nH]nc3c2CN(C(=O)N[C@H](CN(C)C)c2ccccc2)C3(C)C)cc1,% of engagement,[9],-13.3%
CCC(=O)N1CCN(c2ccc(-n3c(=O)ccc4cnc5ccc(-c6cnc7ccccc7c6)cc5c43)cc2C(F)(F)F)CC1,% of control,[10],100%
N#Cc1cccc(-c2c[nH]c3ncnc(N4CCOCC4)c23)c1,% of control,[11],97%
